The text below walks through data of patent US20160136123A1, “TREATMENT OF AUTOPHAGY-RELATED DISORDERS” (STC.UNM, priority 2013, published 2016).

For test [1], the system named is HeLa cells stably expressing mRFP-GFP-LC3. As to the kind of experiment: High content imaging of LC3 puncta after oleic acid pretreatment. The class given is cell-based, Human. The settings on record: 500 μM BSA-oleic acid 20 h, then full medium or EBSS starvation 90 min. Here is the method:
Panals (A) and (B): HeLa cells stably expressing mRFP-GFP-LC3 were treated for 20 h with BSA alone (BSA) or with BSA-oleic acid (OA; 500 μM OA) and then starved in EBSS for 90 min (Starv) or incubated in full medium (Full). A, Visualization of lipid droplet accumulation. Cells were treated as in A and lipid droplets stained with Bodipy 493/503. B, High content image analysis. Program (iDev)-assigned masks: blue outline, valid primary objects (cells); green mask, GFP puncta. (C) number of GFP+ puncta per cell from experiments illustrated in A. (D) RFP+ puncta per cell from experiments illustrated in A. High content analysis data: means±s.e. (n=3, where n represents separate experiments; each experimental point in separate experiments contained >500 cells identified by the program as valid primary objects); *, p<0.05 (t-test). (E) HeLa cells were treated with 0, 100, 500 or 1000 μM oleic acid (OA) using BSA as a carrier (BSA-OA) for 20 h, followed by 90 min starvation in EBSS with or without Bafilomycin A1 (BafA1), and LC3-II/actin ratios determined by immunoblotting and densitometry. (F) HeLa cells were treated for 20 h with BSA alone or with BSA-OA (500 μM OA), followed by starvation in EBSS for 90 min with or without Bafilomycin A1 (BafA1) and LC3-II/actin ratios determined by immunoblotting and densitometry. Immunobloting data: means means±s.e., *, p<0.05 (t-test). […]

In a further test the test system is HeLa cells. Put plainly: LC3-II conversion immunoblot (LC3-II/actin) with or without bafilomycin A1 after oleic acid pretreatment and starvation. Type of test: cell-based, Human. Here is the method:
Panals (A) and (B): HeLa cells stably expressing mRFP-GFP-LC3 were treated for 20 h with BSA alone (BSA) or with BSA-oleic acid (OA; 500 μM OA) and then starved in EBSS for 90 min (Starv) or incubated in full medium (Full). A, Visualization of lipid droplet accumulation. Cells were treated as in A and lipid droplets stained with Bodipy 493/503. B, High content image analysis. Program (iDev)-assigned masks: blue outline, valid primary objects (cells); green mask, GFP puncta. (C) number of GFP+ puncta per cell from experiments illustrated in A. (D) RFP+ puncta per cell from experiments illustrated in A. High content analysis data: means±s.e. (n=3, where n represents separate experiments; each experimental point in separate experiments contained >500 cells identified by the program as valid primary objects); *, p<0.05 (t-test). (E) HeLa cells were treated with 0, 100, 500 or 1000 μM oleic acid (OA) using BSA as a carrier (BSA-OA) for 20 h, followed by 90 min starvation in EBSS with or without Bafilomycin A1 (BafA1), and LC3-II/actin ratios determined by immunoblotting and densitometry. (F) HeLa cells were treated for 20 h with BSA alone or with BSA-OA (500 μM OA), followed by starvation in EBSS for 90 min with or without Bafilomycin A1 (BafA1) and LC3-II/actin ratios determined by immunoblotting and densitometry. Immunobloting data: means means±s.e., *, p<0.05 (t-test).
Addition of oleic acid (OA) is commonly used to increase cellular LD content. […] The enhancement was detected at both autophagy initiation stage (FIG. 1C; GFP-LC3) and autophagosomal maturation (FIG. 1D; mRFP-GFP), as determined by the acidification-sensitive GFP and acidification-insenstive mRFP probes used to distinguish early autophagosomes and autolysosomes, respectively. […]
Antibodies against endogenous proteins LC3 (MBL), P62 (BD Transduction), Atg16L1 (Cosmo Bio) were used for indirect immunofluorescence analysis. […] SlideBook morphometric analysis software 5.0 (Intelligent Imaging Innovations) was used to quantify the colocalization between Atg16L1 or DAG and lipid droplets. […]

The test system of the next test is autophagic maturation. Particulars: e.g. 1 mM, reference [27]; cited from earlier work.
In test [2] the test system is 293T cells and HeLa cells. As to the kind of experiment: TRIM5α overexpression: LC3-II abundance (bafilomycin A1 flux assay) and LC3 puncta by high content analysis. Type of test: cell-based, Human. Particulars: GFP-tagged protein overexpressed, compared with GFP alone; with or without bafilomycin A1. The text has this: FIG. 2A/A illustrates mapping of the p62/Sequestosome 1 region interacting with RhTRIM5α. Schematic (left): domain organization of p62 and deletion/point mutation constructs employed to analyze interactions with RhTRIM5α (right panel). TR, TRIM5α and TRAF6 binding region; NLS, nuclear localization signal; NES, nuclear export signal; LIR, LC3-interacting region; KIR, KEAP1-interacting region. Analysis (right): Myc-RhTRIM5α was radiolabeled with [^35S] methionine by in vitro translation and analyzed by GST pulldown assays with GST-p62 fusion proteins. Top, autoradiogram. Bottom, Coomassie Brilliant Blue (CBB)-stained SDS-polyacrylamide gel with GST-p62 proteins. (B) Effects of TRIM5α knockdown in HeLa cells on GFP-LC3 puncta (area/cell) under basal (DMSO control) and autophagy-inducing (pp242) conditions. HuT5a, human TRIM5α; Scr, Scrambled control. […]
We first tested p62 and TRIM5α interaction (FIG. S2A) and co-localization (FIG. S2B), and mapped the TRIM5α-binding domain on p62 to the region demarcated by residues 170-256 (FIG. 2A). […] When TRIM5α was knocked down, fewer LC3 puncta were detected ([…]) and LC3-II yields (FIG. 2A/B,C) upon induction with pp242 were reduced. […] In these experiments, high content analysis was used to differentiate GFP-TRIM5α-transfected or GFP-transfected cells from untransfected cells based on their green fluorescence. […]

Test [3] relates to HeLa cells stably expressing mRFP-GFP-LC3B. As to the kind of experiment: TRIM family screen control: GFP-LC3B puncta area after pp242. Type of test: cell-based, Human. The settings on record: pp242 for 2 h, versus vehicle. The text has this: Referring to FIG. 1A/A HeLa cells stably expressing mRFP-GFP-LC3B were subjected to TRIM knockdowns, treated with pp242, and imaged to detect nuclear stain (blue) and GFP signal (green). Top, non-targeting siRNA-transfected cells treated with carrier (DMSO) or pp242. White lines, cell borders. Red, LC3B puncta borders. Bottom, representative images of cells subjected to knockdown of TRIM45 and TRIM2, both treated with pp242. (B) Measurement of average area of GFP-LC3B area per cell from cells treated as in (A) (data from multiple 96-well plates with identical siRNA arrangements represent means and ±SE).
Cells were exposed to virus at 4° C. for 1 hour to allow binding but not entry. […] Samples were prepared for analysis of p24, reverse transcriptase, or proviral DNA. […] HIV-1 RT was determined according to the manufacturer's protocol (Enz Chek, Invitrogen). HIV-1 proviral DNA was quantified as previously described (Campbell et al., 2004). […]
HeLa cells stably expressing mRFP-GFP-LC3B were cultured in 96-well plates containing siRNAs against 67 human TRIMs and transfection reagent (Dharmacon). […] Automated image collection of >500 cells (distributed over 49 or fewer fields per well per siRNA knockdown per plate) were machine-analyzed using preset scanning parameters and object mask definition (iDEV software). […] When results were expressed as puncta area per cell, the units corresponded to μm^2/cell.

For the molecule `CCCCCCCC/C=C\CCCCCCCC(=O)O` [OA, oleic acid], the “effect of increase in lipid droplets following OA pretreatment on autophagy (GFP+ and RFP+ LC3 puncta per cell)” value in test [1] was “enhanced basal and induced autophagy”. Moreover, in the test on HeLa cells (0, 100, 500 or 1000 μM OA 20 h, 90 min starvation in EBSS with or without bafilomycin A1), the “OA concentration optimal for enhancing starvation-induced autophagy (LC3-II/actin titration)” value was 500 µM. In addition, in the test on HeLa cells (500 μM BSA-OA 20 h, EBSS 90 min with or without bafilomycin A1), the “effect of OA pretreatment in the bafilomycin A1 inhibition assay (LC3-II/actin)” value is listed as “enhanced cellular capacity for initiation of autophagy upon starvation”. Also, in the test on HeLa cells (1 mM OA 20 h, 90 min starvation in EBSS), the “effect of 1 mM OA on starvation-induced autophagy (LC3-II/actin titration)” value is “either a plateau or potentially inhibitory effects on autophagy”. In addition, in the test on autophagic maturation, the “effect of high concentrations of OA on autophagic maturation” value is “inhibitory to autophagic maturation”.
For “C15A mutant of RhTRIIVI5α: catalytically inactive (E3 ligase) C15A mutant of rhesus TRIM5α”, in test [2], the “effect of TRIM5α overexpression on autophagy (LC3-II, LC3 puncta)” value is given as “induced autophagy comparably to wt RhTRIM5α”.
On to `CC(C)n1nc(-c2cc3cc(O)ccc3[nH]2)c2c(N)ncnc21` [pp242], for which the “induction of GFP-LC3B puncta area” value in test [3] is given as 17 fold.
